Source: ChEMBL document CHEMBL1129128, “Synthesis of divalent -D-mannopyranosylated clusters having enhanced binding affinities towards concanavalin A and pea lectins” (Bioorg Med Chem Lett, 1996)

Tests used:
[1] = tested on: Saccharomyces cerevisiae; experiment: Inhibition of binding of concanavalin A to yeast mannan by compound was measured using peroxidase-labeled lectin assay, expressed relative to 2-Hydroxymethyl-6-methoxy-tetrahydro-pyran-3,4,5-triol
[2] = tested on: Saccharomyces cerevisiae; experiment: Inhibition of binding of pea lectins to yeast mannan by compound was measured using peroxidase-labeled lectin assay, activity expressed relative to 2-Hydroxymethyl-6-methoxy-tetrahydro-pyran-3,4,5-triol
[3] = Inhibition of binding of concanavalin A to yeast mannan by compound was measured using peroxidase-labeled lectin assay,; set-up: species or system Saccharomyces cerevisiae
[4] = Inhibition of binding of pea lectins to yeast mannan by compound was measured using peroxidase-labeled lectin assay; set-up: species or system Saccharomyces cerevisiae

| Compound | Relative potency [1] | Relative potency [2] | IC50 [3] | IC50 [4] |
| --- | --- | --- | --- | --- |
| O=[N+]([O-])c1ccc(O[C@H]2O[C@H](CO)[C@@H](O)[C@H](O)[C@H]2O)cc1 | 8.7 | 2.6 | 106 µM | > 1500 µM |
| O=C(CCCCC/N=C(\S)Nc1ccc(O[C@H]2O[C@@H](CO)[C@@H](O)[C@H](O)[C@H]2O)cc1)Nc1cc(NC(=O)CCCCC/N=C(\S)Nc2ccc(O[C@H]3O[C@@H](CO)[C@@H](O)[C@H](O)[C@H]3O)cc2)cc(C(=O)O)c1 | 25 | 6.7 | 36.8 µM | 575 µM |
| CO[C@H]1O[C@H](CO)[C@@H](O)[C@H](O)[C@H]1O | 1 | 1 | 924 µM | 3850 µM |
| O=C(O)c1cc(N/C(S)=N/CCSCCCO[C@H]2O[C@@H](CO)[C@@H](O)[C@H](O)[C@H]2O)cc(N/C(S)=N/CCSCCCO[C@H]2O[C@@H](CO)[C@@H](O)[C@H](O)[C@H]2O)c1 | 30.3 | 20.8 | 30.5 µM | 185 µM |
| C=CCO[C@H]1O[C@@H](CO)[C@@H](O)[C@H](O)[C@H]1O | 3.5 | 4.1 | 261 µM | 940 µM |
| COC(=O)c1cc(N/C(S)=N/CCSCCCO[C@H]2O[C@@H](CO)[C@@H](O)[C@H](O)[C@H]2O)cc(N/C(S)=N/CCSCCCO[C@H]2O[C@@H](CO)[C@@H](O)[C@H](O)[C@H]2O)c1 | 138 | 29.8 | 6.7 µM | 129 µM |
